Drawing on patent publication US20240398805A1, “QUINAZOLINE DERIVED COMPOUNDS AS EGFR INHIBITORS AND THEIR USES THEREOF” (ACCUTAR BIOTECHNOLOGY INC., priority 2021, published 2024), this text covers GI50 for 15 molecules.

What all share (format): cell-based
For assay [1], the system named is HCC827 cells. The experiment in a line: Cell growth inhibition (CellTiter-Glo, 3 days) in HCC827. The note with it: Homo sapiens, 72 h, 3 days after administration. Here is the method: (§1) 2. Cell Growth Inhibition for HCC827, HCC827-SVD, HCC827-ASV, HCC827-YVMA and A431.
(§2) HCC827(ATCC), HCC827-SVD, HCC827-ASV, HCC827-YVMA were seeded in 96-well plates at 5000 cells/well in 90 μl of RPMI growth medium containing 10% FBS and 1% Penicillin Streptomycin. A431 (ATCC) cells were seed in 96-well plates at 5000 cells/well in 90 μl of DMEM growth medium containing 10% FBS and 1% Penicillin Streptomycin. Cells were incubated at 3700 overnight. The following day, the test compound was administered to the cells by using 1 Ox compound stock solution prepared in growth medium at various concentrations. After administration of the compound, cells were then incubated at 3700 for 3 days. Before CeIlTiter-Glo assay, the plates were equilibrated at room temperature for approximately 10 minutes. 100 ul of CelTiter-Glo® Reagent (Promega) was added to each well. The plates were then incubated at room temperature for 10 minutes and luminescence was recorded by EnSpire plate reader (PerkinElmer).

Assay [2] concerns HCC827-SVD cells (human EGFR exon 20 insertion mutant D770_N771 insSVD). The experiment in a line: Cell growth inhibition (CellTiter-Glo, 3 days) in HCC827-SVD. Conditions: 72 h, 3 days after administration. Here is the method:
(§3) 1. Preparation of HCC827-SVD, HCC827-ASV and HCC827-YVMA Cell Lines
HCC827-SVD cell line were generated by first transducing HCC827 cells (ATCC) with lentiviral particles expressing codon-optimized human EGFR exon 20 insertion mutant D770_N771 insSVD, and then selecting under 5 μg/ml purimycin treatment for a week.
The resulting cells were further transduced with lentiviral particles carrying EGFR sgRNA and CAS9 to knockout the endogenous alleles of EGFR, and then selected under 500 μg/ml hygromycin B treatment for two weeks. Single clone was subsequently generated by limiting dilution approach. Endogenous EGFR knockout was confirmed by Sanger sequencing of cell genomic DNA and expression of exogenous mutant EGFR was verified by Western blot analysis.
as §1, §2
(In general: Cellular ATP, detected with luciferase, serves as a proxy for viable cell number.)

Assay [3] concerns HCC827-ASV cells (human EGFR exon 20 insertion mutant A769_D770insASV). The experiment in a line: Cell growth inhibition (CellTiter-Glo, 3 days) in HCC827-ASV. Conditions: 72 h, 3 days after administration.
From the text: as §3
(§4) HCC827-ASV and HCC827-YVMA cell lines were generated in the similar approach as HCC827-SVD except that HCC827 cells (ATCC) were first transduced with lentiviral particles expressing codon-optimized human EGFR exon 20 insertion mutant A769_D770insASV and human ERBB2 exon20 insertion mutant A775_G776ins YVMA, respectively.
as §1, §2

For assay [4], the system named is HCC827-YVMA cells (human ERBB2 exon20 insertion mutant A775_G776ins YVMA). Description: Cell growth inhibition (CellTiter-Glo, 3 days) in HCC827-YVMA. Conditions: 72 h, 3 days after administration.
From the text: as §3, §4, §1, §2

The test system of assay [5] is A431 cells. Description: Cell growth inhibition (CellTiter-Glo, 3 days) in A431. The note with it: Homo sapiens, A-431, 72 h, 3 days after administration. Here is the method:
as §1, §2

Turning to `C=CC(=O)N1CCC(Nc2cc3c(Nc4ccc(Oc5cc(-c6ccc(C)nc6)ccn5)cc4F)ncnc3cc2OC)CC1` [Compound 46, 1-[4-({4-[(2-fluoro-4-{[4-(6-methylpyridin-3-yl)pyridin-2-yl]oxy}phenyl)amino]-7-methoxyquinazolin-6-yl}amino)piperidin-1-yl]prop-2-en-1-one], the concentration for 50% growth inhibition (GI50) in assay [1] was 100 to 300 nM; in assay [2], 30 to 60 nM; in assay [3], 60 to 100 nM; in assay [4], under 30 nM; in assay [5] it was at least 1000 nM.
On the same counts, the results for `C=CC(=O)N1CCC(Nc2cc3c(Nc4ccc(Oc5nc(-c6cnc(C7CC7)nc6)cs5)cc4F)ncnc3cc2OC)CC1` [Compound 51, 1-(4-((4-((4-((4-(2-cyclopropylpyrimidin-5-yl)thiazol-2-yl)oxy)-2-fluorophenyl)amino)-7-methoxyquinazolin-6-yl)amino)piperidin-1-yl)prop-2-en-1-one] are 30 to 60 nM, 30 to 60 nM, 30 to 60 nM, 30 to 60 nM and 100 to 300 nM.
In the same order, the values of `C=CC(=O)N1CC2(CC(Oc3cc4c(Nc5ccc(Oc6ccn(-c7cnc(OC)nc7)n6)cc5F)ncnc4cc3OC)C2)C1` [Compound 79, 1-(6-((4-((2-fluoro-4-((1-(2-methoxypyrimidin-5-yl)-1H-pyrazol-3-yl)oxy)phenyl)amino)-7-methoxyquinazolin-6-yl)oxy)-2-azaspiro [3.3]heptan-2-yl) prop-2-en-1-one] are at least 1000 nM, at least 1000 nM, at least 1000 nM, at least 1000 nM and at least 1000 nM.
In the same order, the values of `C=CC(=O)N1CC[C@@H](Oc2cc3c(Nc4ccc(Oc5ccn(-c6cnc(OC)nc6)n5)cc4F)ncnc3cc2OC)C1` [Compound 80, (R)-1-(3-((4-((2-fluoro-4-((1-(2-methoxypyrimidin-5-yl)-1H-pyrazol-3-yl)oxy)phenyl)amino)-7-methoxyquinazolin-6-yl)oxy)pyrrolidin-1-yl) prop-2-en-1-one] are at least 1000 nM, at least 1000 nM, at least 1000 nM, at least 1000 nM and at least 1000 nM.
In the case of `C=CC(=O)N1CC2(CC(Nc3cc4c(Nc5ccc(Oc6ccn(-c7cnc(OC)nc7)n6)cc5F)ncnc4cc3OC)C2)C1` [Compound 84, 1-(6-((4-((2-fluoro-4-((1-(2-methoxypyrimidin-5-yl)-1H-pyrazol-3-yl)oxy)phenyl)amino)-7-methoxyquinazolin-6-yl)amino)-2-azaspiro[3.3]heptan-2-yl)prop-2-en-1-one], the GI50 in assay [1], in assay [2], in assay [3], in assay [4] and in assay [5] was at least 1000 nM each time.
As for `[2H]C([2H])([2H])Oc1cc2ncnc(Nc3ccc(Oc4nc(-c5ccc(C)nc5)cs4)cc3F)c2cc1NC1CCN(C(=O)C=C)CC1` [Compound 87, 1-(4-((4-((2-fluoro-4-((4-(6-methylpyridin-3-yl)thiazol-2-yl)oxy)phenyl)amino)-7-(methoxy-d3)quinazolin-6-yl)amino)piperidin-1-yl)prop-2-en-1-one], the GI50 in assay [1] was 100 to 300 nM; in assay [2], 30 to 60 nM; in assay [3], 60 to 100 nM; in assay [4], 30 to 60 nM; in assay [5], 100 to 300 nM.
For `C=CC(=O)N1CCC(Nc2cc3c(Nc4ccc(Oc5ccnc(-c6csc(C)n6)c5)cc4F)ncnc3cc2OC)CC1` [Compound 97, 1-(4-((4-((2-fluoro-4-((2-(2-methylthiazol-4-yl)pyridin-4-yl)oxy)phenyl)amino)-7-methoxyquinazolin-6-yl)amino)piperidin-1-yl) prop-2-en-1-one], the GI50 in assay [1] is 30 to 60 nM; in assay [2], under 30 nM; in assay [3] it was under 30 nM; in assay [4] it was under 30 nM; in assay [5], 300 to 600 nM.
Consider `C=CC(=O)N1CCC(Nc2cc3c(Nc4ccc(Oc5ccnc(N6CCCCC6)c5)cc4F)ncnc3cc2OC)CC1` [Compound 100, 1-(4-((4-((2-fluoro-4-((2-(piperidin-1-yl)pyridin-4-yl)oxy)phenyl)amino)-7-methoxyquinazolin-6-yl)amino)piperidin-1-yl)prop-2-en-1-one], for which the GI50 in assay [1] lay in the range of 100 to 300 nM; in assay [2], 100 to 300 nM; in assay [3], 100 to 300 nM; in assay [4], 100 to 300 nM; in assay [5], 300 to 600 nM.
As to `C=CC(=O)N1CCC(Nc2cc3c(Nc4ccc(Oc5ccnc(N6C[C@@H](C)O[C@@H](C)C6)c5)cc4F)ncnc3cc2OC)CC1` [Compound 101, 1-(4-((4-((4-((2-((2R,6S)-2,6-dimethylmorpholino)pyridin-4-yl)oxy)-2-fluorophenyl)amino)-7-methoxyquinazolin-6-yl)amino)piperidin-1-yl)prop-2-en-1-one], the GI50 in assay [1] is 60 to 100 nM; in assay [2] it was under 30 nM; in assay [3] it was under 30 nM; in assay [4], under 30 nM; in assay [5], at least 1000 nM.
On to `C=CC(=O)N1CCC(Nc2cc3c(Nc4ccc(Oc5ccnc(N6CCC(C(F)(F)F)C6)c5)cc4F)ncnc3cc2OC)CC1` (stereo not drawn) [Compound 150, 1-(4-((4-((2-fluoro-4-((2-(3-(trifluoromethyl)pyrrolidin-1-yl)pyridin-4-yl)oxy)phenyl)amino)-7-methoxyquinazolin-6-yl)amino)piperidin-1-yl)prop-2-en-1-one], for which the GI50 is under 30 nM in assay [1]; under 30 nM in assay [2]; under 30 nM in assay [3]; under 30 nM in assay [4]; 100 to 300 nM in assay [5].
Take `C=CC(=O)N1CCC(Nc2cc3c(Nc4ccc(Oc5ccnc(N6CCC(C#N)C6)c5)cc4F)ncnc3cc2OC)CC1` (stereo not drawn) [Compound 151, 1-(4-(4-((6-((1-acryloylpiperidin-4-yl)amino)-7-methoxyquinazolin-4-yl)amino)-3-fluorophenoxy)pyridin-2-yl)pyrrolidine-3-carbonitrile]: the GI50 in assay [1] is 100 to 300 nM; in assay [2] it was under 30 nM; in assay [3], under 30 nM; in assay [4], under 30 nM; in assay [5], 600 to 1000 nM.
In the case of `C=CC(=O)N1CCC(Oc2cc3c(Nc4ccc(Oc5ccnc(N6C[C@H]7COC[C@H]7C6)c5)cc4F)ncnc3cc2OC)CC1` [Compound 165, 1-(4-((4-((2-fluoro-4-((2-((3aR,6aS)-tetrahydro-1H-furo[3,4-c]pyrrol-5(3H)-yl)pyridin-4-yl)oxy)phenyl)amino)-7-methoxyquinazolin-6-yl)oxy)piperidin-1-yl)prop-2-en-1-one], the GI50 in assay [1] is 300 to 600 nM; in assay [2] it was under 30 nM; in assay [3], under 30 nM; in assay [4], 30 to 60 nM; in assay [5], at least 1000 nM.
In the case of `C=CC(=O)N1CCC(Nc2cc3c(Nc4ccc(Oc5ccnc(C(=O)NC(C)(C)C)c5)cc4F)ncnc3cc2OC)CC1` [Compound 167, 4-(4-((6-((1-acryloylpiperidin-4-yl)amino)-7-methoxyquinazolin-4-yl)amino)-3-fluorophenoxy)-N-(tert-butyl)picolinamide], the GI50 in assay [1] is under 30 nM; in assay [2], 60 to 100 nM; in assay [3], 30 to 60 nM; in assay [4] it was 60 to 100 nM; in assay [5] it was 600 to 1000 nM.
In the case of `C=CC(=O)N1CCC(Nc2cc3c(Nc4ccc(Oc5ccnc(C(=O)NC)c5)cc4F)ncnc3cc2OC)CC1` [Compound 181, 4-(4-((6-((1-acryloylpiperidin-4-yl)amino)-7-methoxyquinazolin-4-yl)amino)-3-fluorophenoxy)-N-methylpicolinamide], the concentration for 50% growth inhibition (GI50) in assay [1] is under 30 nM; in assay [2], under 30 nM; in assay [3], under 30 nM; in assay [4], under 30 nM; in assay [5], 100 to 300 nM.
`C=CC(=O)N1CCC(Nc2cc3c(Nc4ccc(Oc5ccnc(NC6CCOCC6)c5)cc4F)ncnc3cc2OC)CC1` [Compound 185, 1-(4-((4-((2-fluoro-4-((2-((tetrahydro-2H-pyran-4-yl)amino)pyridin-4-yl)oxy)phenyl)amino)-7-methoxyquinazolin-6-yl)amino)piperidin-1-yl)prop-2-en-1-one]: the GI50 in assay [1] is under 30 nM; in assay [2], under 30 nM; in assay [3], under 30 nM; in assay [4], under 30 nM; in assay [5] it was 100 to 300 nM.

As usually defined, the GI50 is the concentration at which growth is held to half of that of the control.
